The text below walks through data of patent publication US20140221480A1, “METHODS OF MANAGING BRAIN INFLAMMATION” (EMORY UNIVERSITY, priority 2013, published 2014).

“Also recorded” adds a separate entry of the source. Like-named read-outs stand apart in the source and are kept apart here.

Assay type in all cases: in vivo, mice (C57BL/6J)
Data set [1] relates to mice subjected to acute cerebral I/R. Put plainly: Assessment of cerebral infarct size by TTC staining after focal cerebral ischemia/reperfusion (MCAO). As to conditions: 24 hrs after cerebral I/R, 3 mg/kg i.p. 1 hr after ischemia. The source says: Animals—Fifty male mice (C57BL/6J, body weight 25˜30 g) were obtained from Jackson Laboratory and maintained in the Division of Laboratory Animal Resources at Emory University”. The experiments outlined in this manuscript conform to the Guide for the Care and Use of Laboratory Animals published by the National Institutes of Health. The animal care and experimental protocols were approved by the Emory University Committee on Animal Care. […]
Focal cerebral ischemia/reperfusion—Focal cerebral FR was induced by occlusion of the middle cerebral artery (MCAO) on the left side. […] Heart rate and PO2 were monitored during surgery. […]
Assessment of cerebral infarct size—Twenty-four hours after FR, mice were sacrificed and perfused with ice-cold phosphate buffered saline (PBS) via the ascending aorta. […] The infarct areas were traced and quantified with ImageJ analysis system. […] The area of infarction and the area of both hemispheres were calculated for each brain slice. An edema index was calculated by dividing the total volume of the left hemisphere by the total volume of the right hemisphere. The actual infarct volume adjusted for edema was calculated by dividing the infarct volume by the edema index. Infarct volumes are expressed as percentage of the total brain volume±S.E.M.

Data set [2] can be described thus: Concentration of TAK-242 in plasma and brain tissue after i.p. injection (LC-MS/MS). As to conditions: for concentration at 3 h / concentration at 8 h / concentration at 24 h: male, C57BL/6J, mouse, ip, 3 mg/kg body weight; for concentration at 3 h: 3 hrs after i.p. injection; for concentration at 8 h: 8 hrs after i.p. injection; for concentration at 24 h: 24 hrs after i.p. injection. From the text:
(§1) Animals—Fifty male mice (C57BL/6J, body weight 25˜30 g) were obtained from Jackson Laboratory and maintained in the Division of Laboratory Animal Resources at Emory University”. The experiments outlined in this manuscript conform to the Guide for the Care and Use of Laboratory Animals published by the National Institutes of Health. The animal care and experimental protocols were approved by the Emory University Committee on Animal Care. Animals were randomly assigned to four groups: sham control (S, n=4, for molecular analysis), focal cerebral ischemia/reperfusion (I/R, n=16; 5 for molecular analysis), Sham+TAK-242 (S-T, n=4, for molecular analysis), and I/R+TAK-242 (I/R-T, n=16; 5 for molecular analysis). Ten mice were used for the measurement of TAK-242 concentration in plasma and brain tissue.
(§2) Focal cerebral ischemia/reperfusion—Focal cerebral FR was induced by occlusion of the middle cerebral artery (MCAO) on the left side. Mice were subjected to anesthesia by 5.0% isoflurane and maintained by inhalation of 1.5% to 2% isoflurane driven by 100% oxygen flow. Mice were ventilated (110 breaths/min with volume 0.5 ml) and body temperature was regulated at 37.0° C. Heart rate and PO2 were monitored during surgery. Following the skin incision, the left common carotid artery (CCA), the external carotid artery (ECA), and the internal carotid artery (ICA) were carefully exposed. Microvascular aneurysm clips were applied to the left CCA and the ICA. A coated 6-0 filament (6023PK, Doccol Corp. CA, USA) was introduced into an arteriotomy hole, fed distally into the ICA and advanced 11 mm from the carotid bifurcation. The ICA clamp was removed and focal cerebral ischemia started. After ischemia for 60 min, the filament and the CCA clamp were gently removed (reperfusion starts). The collar suture at the base of the ECA stump was tightened. The skin was closed, anesthesia discontinued, and the animal allowed to recover in a pre-warmed cage. Control mice underwent a neck dissection and coagulation of the external carotid artery, but no occlusion of the MCA. Ischemia and reperfusion were confirmed by rCBF.
(§3) TAK-242 treatment—TAK-242 was dissolved in DMSO and then diluted in sterile endotoxin-free water and injected intraperitoneally (i.p., 3 mg/kg body weight) 1 hr after MCAO or sham surgical operation.
Measurement of TAK242 concentration in plasma and brain tissue—Three, 8 or 24 hours after the injection of TAK242, the mice were anesthetized with 5.0% isoflurane driven by 100% oxygen flow. Blood (0.95 ml) was drawn from the left ventricle and immediately mixed with 0.05 mL sodium citrate (CCS). The samples were incubated at room temperature for 30 min and centrifuged at 8000 rpm. The plasma was collected and stored at −80° C. for future use Immediately after the blood was drawn, the mice were perfused with ice-cold normal saline via the ascending aorta until the perfusion buffer was clear from the right atrium. The brains were removed and weighed. Brain tissues were homogenized with buffer, and centrifuged at 14000 rpm for 10 min. Supernatants were collected and stored at −80° C. The concentrations of TAK-242 were detected by Intertek (USA) using Liquid Chromatography with Tandem Mass Spectrometry Detection (LC-MS/MS). Briefly, TAK-242 and internal standard (Bromfenac) were extracted from 50 μL of mouse plasma or brain homogenate by liquid-liquid extraction using methyltertiary-butyl ether (MTBE). After evaporation to dryness and reconstitution, the extracts were analyzed by LC-MS/MS. Run times were approximately 5 min. The Lower Limit of Quantitation (LLOQ) for TAK-242 is 0.5 ng/ml for plasma and 2 ng/g for brain homogenate.

Data set [3] deals with inflammatory cytokines in ischemic brain. Put plainly: Antibody array of inflammatory cytokines in ischemic brain tissue. As to conditions: 6 hrs after cerebral I/R; 3 mg/kg i.p.; vs untreated controls, p<0.05.
Description: as §1, §2, §3
Antibody array—Proteins were prepared from ischemic cerebral hemispheres. Forty inflammatory cytokines were analyzed by antibody arrays (RayBio® Cytokine Antibody Arrays—Mouse Inflammation Antibody Array G Series I). Briefly, the glass chips were air-dried for 60 min and assembled into an incubation chamber and incubation frame. […] The signal data was collected and analyzed by software from RayBiotech, Inc. (Atlanta, Ga., USA). […]

Data set [4] has as its system mice subjected to acute cerebral I/R. Kind of data set: Evaluation of neurological score after focal cerebral ischemia/reperfusion (MCAO). As to conditions: 24 hrs after cerebral I/R; 3 mg/kg i.p. 1 hr after ischemia; scale 0 to 15, 15 perfect; control group 4.38.
Description: as §1
Focal cerebral ischemia/reperfusion—Focal cerebral FR was induced by occlusion of the middle cerebral artery (MCAO) on the left side. Mice were subjected to anesthesia by 5.0% isoflurane and maintained by inhalation of 1.5% to 2% isoflurane driven by 100% oxygen flow. Mice were ventilated (110 breaths/min with volume 0.5 ml) and body temperature was regulated at 37.0° C. Heart rate and PO2 were monitored during surgery. […]
Evaluation of neurological score—Mice were scored by a blinded investigator. […]

Setting [5] is: hemisphere contralateral to ischemia, brain tissue, read-out: concentration of TAK-242 in hemisphere contralateral to ischemia.
[6] abbreviates: ischemic (ipsilateral) hemisphere, brain tissue, read-out: concentration of TAK-242 in ischemic (ipsilateral) hemisphere.
Setting [7] is: plasma, mice with tMCAO, read-out: concentration of TAK-242 in plasma.

For the compound `CCOC(=O)C1=CCCC[C@H]1S(=O)(=O)Nc1ccc(F)cc1Cl` [TAK-242, ethyl (6R)-6-[N-(2-chloro-4-fluorophenyl)sulfamoyl]cyclohex-1-ene-1-carboxylate], the brain infarct size in data set [1] (control group 21.3%) was determined as 12.5%. Besides, in data set [1] (p<0.05), the “reduction of brain infarct size compared to control mice” value is 41%. The “ability to pass through the blood brain barrier (BBB)” value in data set [2] (3 mg/kg i.p., mice) is recorded as “passes the blood-brain barrier; also recorded: can pass through the BBB”. For the same compound, the “concentration in ischemic hemisphere compared with contralateral hemisphere” value in data set [2] (3 mg/kg i.p., p<0.05) is “significantly higher”. Further, in data set [2] (setting [5]), the concentration at 3 h amounted to 14.2 ng/mL, the concentration at 8 h was 15.1 ng/mL and the concentration at 24 h was found to be 17.5 ng/mL. Also, in data set [2] (setting [6]), the concentration at 3 h is 26.1 ng/mL, the concentration at 8 h turned out to be 26.4 ng/mL and the concentration at 24 h worked out at 25 ng/mL. In data set [2] (setting [7]), the concentration at 3 h was found to be 52 ng/mL, the concentration at 8 h was 54.1 ng/mL and the concentration at 24 h is 22.6 ng/mL. Besides, in data set [3], the “level of MCP-1 in brain tissue” value was “significantly reduced”, the “level of MIP-1γ in brain tissue” value is “significantly reduced”, the “level of TIMP-1 in brain tissue” value is listed as “significantly reduced” and the “level of sTNF RII in brain tissue” value is listed as “significantly reduced”. This compound returned a neurological score in data set [4] of 6.73.
